Consider 9 molecules from ChEMBL document CHEMBL1201862, “PubChem BioAssay data set” (2004).

The test system of experiment [1] is HEK293. Description: SAR Analysis of small molecule inhibitors of T-cell specific antigen receptor-induced NF-kB activation in a HEK-293T cell line using a luminescence assay - Set 2. [Related pubchem assays (depositor defined):AID435003, AID435012, AID489026]. Conditions: Homo sapiens. It counts as functional, cell-based.
Experiment [2] has as its system Jurkat. Put plainly: SAR Analysis of small molecule inhibitors of T-cell specific antigen receptor-induced NF-kB activation in a Jurkat cell line using a luminescence assay - Set 2. [Related pubchem assays (depositor defined):AID435003, AID435012, AID465]. In kind it is functional, cell-based. To be noted: Homo sapiens.
Experiment [3] relates to HEK293. Description: HEK293T cell viability loss, resazurin readout – resazurin fluorescence, cytotoxicity control for NF-kB activator project, SAR follow-up (AID 493251). In kind it is functional, cell-based. (Alamar Blue is a resazurin reagent that responds to reducing activity.)
In experiment [4] the test system is Vero. Put plainly: cells. In kind it is functional, cell-based. To be noted: Chlorocebus sabaeus.
For experiment [5], the system named is Vero. Put plainly: cells. It counts as functional. Conditions: Chlorocebus sabaeus.
The target in experiment [6] is T1, High affinity choline transporter 1 (Homo sapiens, UniProt Q9GZV3).
T1 sequence (Q9GZV3 whole entry): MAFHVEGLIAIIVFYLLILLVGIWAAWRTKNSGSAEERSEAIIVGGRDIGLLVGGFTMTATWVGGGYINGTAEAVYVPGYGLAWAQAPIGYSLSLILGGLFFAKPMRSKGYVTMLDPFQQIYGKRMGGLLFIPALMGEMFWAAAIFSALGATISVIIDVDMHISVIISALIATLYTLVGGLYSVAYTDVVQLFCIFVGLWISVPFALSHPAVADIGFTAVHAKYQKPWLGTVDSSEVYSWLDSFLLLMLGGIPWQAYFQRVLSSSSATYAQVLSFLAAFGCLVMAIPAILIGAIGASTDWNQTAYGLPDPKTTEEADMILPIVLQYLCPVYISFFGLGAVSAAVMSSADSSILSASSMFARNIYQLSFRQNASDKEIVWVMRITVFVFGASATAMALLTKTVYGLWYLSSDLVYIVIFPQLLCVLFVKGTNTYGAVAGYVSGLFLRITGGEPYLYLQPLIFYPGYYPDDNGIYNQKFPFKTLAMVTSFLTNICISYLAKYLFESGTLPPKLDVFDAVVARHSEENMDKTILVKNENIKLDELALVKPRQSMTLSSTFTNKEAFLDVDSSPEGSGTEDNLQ
Put plainly: human choline transporter blockers, potency – cell-based, 5-point CRC, membrane potential dye, dose response (AID 504840). In kind it is functional.

Experiment [7] is described as follows: HEK-293T cell viability reduction – luminescence, B-cell screen hits, cytotoxicity control for BCR NF-kB inhibitor project, dose response (AID 489021).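 Also: HEK-293T cells carrying an NF-kB luciferase reporter; cells exposed to compound for about 14 hours before viability readout.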 It counts as functional, cell-based.
For experiment [8], the target named is T2, Tyrosine-protein phosphatase non-receptor type 7 (Homo sapiens, UniProt P35236).
T2 sequence (P35236 whole entry): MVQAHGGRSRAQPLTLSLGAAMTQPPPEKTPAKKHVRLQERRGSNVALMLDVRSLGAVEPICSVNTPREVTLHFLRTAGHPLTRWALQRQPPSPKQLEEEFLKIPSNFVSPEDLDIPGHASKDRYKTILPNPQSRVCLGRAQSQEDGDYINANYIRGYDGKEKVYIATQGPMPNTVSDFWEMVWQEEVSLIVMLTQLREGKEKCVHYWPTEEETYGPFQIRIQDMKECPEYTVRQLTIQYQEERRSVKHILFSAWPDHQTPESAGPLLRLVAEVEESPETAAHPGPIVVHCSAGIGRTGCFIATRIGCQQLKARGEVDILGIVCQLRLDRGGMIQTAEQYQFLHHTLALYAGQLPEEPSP
Description: redox-active compounds inhibiting HePTP phosphatase – biochemical, fluorescence, mechanism study (AID 2068). It counts as functional.

Experiment [9] addresses T3, Dual specificity protein phosphatase 6 (Rattus norvegicus, UniProt Q64346).
T3 sequence (Q64346 whole entry): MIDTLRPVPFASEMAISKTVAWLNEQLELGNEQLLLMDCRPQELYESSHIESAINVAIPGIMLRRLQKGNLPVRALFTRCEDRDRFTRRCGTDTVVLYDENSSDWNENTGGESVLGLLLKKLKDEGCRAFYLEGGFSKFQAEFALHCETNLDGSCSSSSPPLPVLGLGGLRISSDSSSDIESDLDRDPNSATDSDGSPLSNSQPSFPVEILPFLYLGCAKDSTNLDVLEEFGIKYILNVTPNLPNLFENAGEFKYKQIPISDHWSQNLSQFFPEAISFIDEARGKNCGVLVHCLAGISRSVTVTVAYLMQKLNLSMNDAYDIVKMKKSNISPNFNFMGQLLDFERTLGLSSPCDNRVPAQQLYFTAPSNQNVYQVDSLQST
In kind it is functional.

The target of experiment [10] is CAAX prenyl protease 2 (Homo sapiens, UniProt Q9Y256). Description: inhibition of Ras-converting CAAX protease Rce1 – biochemical, yeast membranes, quenched-peptide fluorescence, cherry-pick, dose response (AID 588849).
Sequence of CAAX prenyl protease 2 (Q9Y256 whole entry): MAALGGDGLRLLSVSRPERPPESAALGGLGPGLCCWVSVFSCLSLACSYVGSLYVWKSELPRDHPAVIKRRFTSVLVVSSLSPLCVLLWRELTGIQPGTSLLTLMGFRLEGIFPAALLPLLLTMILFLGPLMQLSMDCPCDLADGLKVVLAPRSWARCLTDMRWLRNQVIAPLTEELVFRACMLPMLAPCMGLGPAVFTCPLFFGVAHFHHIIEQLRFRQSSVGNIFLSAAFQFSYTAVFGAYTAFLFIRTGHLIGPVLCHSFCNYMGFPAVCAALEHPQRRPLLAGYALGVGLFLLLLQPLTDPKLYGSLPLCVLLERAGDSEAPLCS
A short description of experiment [11]: MIN6 cell viability loss – mouse insulinoma, cytotoxicity control, dose response (AID 2122).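 Also: confirmatory high-throughput counterscreen run to flag cytotoxic compounds.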 It counts as functional.
In experiment [12] the target is T4, DNA repair and recombination protein RAD54-like (Homo sapiens, UniProt Q92698).
T4 sequence (Q92698 whole entry): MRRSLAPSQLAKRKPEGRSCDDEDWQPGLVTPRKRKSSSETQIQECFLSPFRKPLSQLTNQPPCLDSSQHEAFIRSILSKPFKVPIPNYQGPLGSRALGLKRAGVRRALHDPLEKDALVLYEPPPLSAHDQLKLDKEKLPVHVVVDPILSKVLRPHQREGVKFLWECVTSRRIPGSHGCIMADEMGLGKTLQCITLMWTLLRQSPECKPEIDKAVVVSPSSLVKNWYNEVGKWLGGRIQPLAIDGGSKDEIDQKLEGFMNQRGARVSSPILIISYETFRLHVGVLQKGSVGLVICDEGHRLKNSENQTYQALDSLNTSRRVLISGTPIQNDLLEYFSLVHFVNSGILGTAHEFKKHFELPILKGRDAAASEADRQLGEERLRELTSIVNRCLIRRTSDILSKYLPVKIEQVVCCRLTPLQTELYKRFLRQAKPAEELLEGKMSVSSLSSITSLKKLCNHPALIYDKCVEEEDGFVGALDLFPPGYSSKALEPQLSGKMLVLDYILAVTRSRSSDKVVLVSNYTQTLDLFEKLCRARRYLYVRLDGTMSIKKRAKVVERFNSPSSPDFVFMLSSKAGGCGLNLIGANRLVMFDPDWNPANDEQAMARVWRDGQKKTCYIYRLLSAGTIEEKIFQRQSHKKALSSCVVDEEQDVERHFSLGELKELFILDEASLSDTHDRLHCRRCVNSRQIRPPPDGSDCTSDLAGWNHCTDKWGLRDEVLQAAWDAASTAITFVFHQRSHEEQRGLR
Description: RAD54 Holliday junction migration blockers – biochemical, fluorescence, cherry-picked samples, dose series, confirmation (AID 651657). In kind it is functional.

Experiment [13] is described as follows: alpha-synuclein stem-loop luciferase translation blockers – H4 neuroglioma cells, luminescence, confirmation (AID 1988). In kind it is functional, cell-based.
For experiment [14], the system named is HT-1080. Description: HT1080 cell viability loss – fluorescence readout (AID 620). It counts as functional, cell-based. To be noted: Homo sapiens.
For experiment [15], the target named is Luciferin 4-monooxygenase (Photinus pyralis, UniProt P08659). Description: Counter Screen for Luciferase-based Assay Positives. [Related pubchem assays: 620, 618, 411 ].
Sequence of Luciferin 4-monooxygenase (P08659 whole entry): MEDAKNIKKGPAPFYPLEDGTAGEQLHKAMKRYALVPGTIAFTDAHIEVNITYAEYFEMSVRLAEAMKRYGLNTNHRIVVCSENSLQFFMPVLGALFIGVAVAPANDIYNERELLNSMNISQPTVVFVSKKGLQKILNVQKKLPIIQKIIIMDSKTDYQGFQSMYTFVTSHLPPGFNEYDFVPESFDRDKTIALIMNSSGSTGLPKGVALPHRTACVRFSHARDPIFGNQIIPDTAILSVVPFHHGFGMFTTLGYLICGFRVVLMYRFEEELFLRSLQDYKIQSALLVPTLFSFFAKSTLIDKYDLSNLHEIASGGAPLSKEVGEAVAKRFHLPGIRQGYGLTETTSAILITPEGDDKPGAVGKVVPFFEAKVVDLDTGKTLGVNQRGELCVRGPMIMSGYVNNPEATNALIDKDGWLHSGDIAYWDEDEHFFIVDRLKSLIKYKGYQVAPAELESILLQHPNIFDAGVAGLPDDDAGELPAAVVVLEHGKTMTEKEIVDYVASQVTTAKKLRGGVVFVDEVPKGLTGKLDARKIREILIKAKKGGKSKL
The nature of experiment [16]: decrease of insulin promoter-GFP reporter – imaging, high-content screening, mouse beta cells (AID 1628). In kind it is functional. Conditions: MIN6.
For experiment [17], the system named is HEK293. Put plainly: cells. To be noted: Homo sapiens.
Experiment [18] in a line: Luminescence Cell-Based Dose Response HTS to Identify Inhibitors of 5'UTR Stem-Loop Driven Prion Protein mRNA Translation in H4 Neuroglioblastoma Cells. [Related pubchem assays: 1827 (Project Summary), 1813 (Primary HTS)]. It counts as functional.
In experiment [19] the test system is HEK293. Put plainly: cells. Conditions: Homo sapiens. This is another data set of the same source.
A short description of experiment [20]: acridine orange displacement from DNA – biochemical, fluorescence polarization, cherry-pick, artefact control for RAD54 inhibitor project, dose response (AID 651673). In kind it is functional.
For experiment [21], the system named is HEK293. Put plainly: cells. To be noted: Homo sapiens. The source holds these as a separate data set.
The target of experiment [22] is Tumor necrosis factor (Homo sapiens, UniProt P01375). Description: analog potency on TNFa NF-kB signaling – cell-based, revised, SAR follow-up (AID 2337). In kind it is functional.
Sequence of Tumor necrosis factor (P01375 whole entry, the tested form may be a part): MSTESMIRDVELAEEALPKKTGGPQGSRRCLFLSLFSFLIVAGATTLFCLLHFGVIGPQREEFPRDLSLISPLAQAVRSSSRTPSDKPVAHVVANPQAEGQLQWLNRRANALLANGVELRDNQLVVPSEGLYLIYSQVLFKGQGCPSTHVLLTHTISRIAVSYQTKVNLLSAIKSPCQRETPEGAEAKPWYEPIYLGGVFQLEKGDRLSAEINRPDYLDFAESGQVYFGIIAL
The target of experiment [23] is T5, Nucleotide-binding oligomerization domain-containing protein 1 (Homo sapiens, UniProt Q9Y239).
T5 sequence (Q9Y239 whole entry): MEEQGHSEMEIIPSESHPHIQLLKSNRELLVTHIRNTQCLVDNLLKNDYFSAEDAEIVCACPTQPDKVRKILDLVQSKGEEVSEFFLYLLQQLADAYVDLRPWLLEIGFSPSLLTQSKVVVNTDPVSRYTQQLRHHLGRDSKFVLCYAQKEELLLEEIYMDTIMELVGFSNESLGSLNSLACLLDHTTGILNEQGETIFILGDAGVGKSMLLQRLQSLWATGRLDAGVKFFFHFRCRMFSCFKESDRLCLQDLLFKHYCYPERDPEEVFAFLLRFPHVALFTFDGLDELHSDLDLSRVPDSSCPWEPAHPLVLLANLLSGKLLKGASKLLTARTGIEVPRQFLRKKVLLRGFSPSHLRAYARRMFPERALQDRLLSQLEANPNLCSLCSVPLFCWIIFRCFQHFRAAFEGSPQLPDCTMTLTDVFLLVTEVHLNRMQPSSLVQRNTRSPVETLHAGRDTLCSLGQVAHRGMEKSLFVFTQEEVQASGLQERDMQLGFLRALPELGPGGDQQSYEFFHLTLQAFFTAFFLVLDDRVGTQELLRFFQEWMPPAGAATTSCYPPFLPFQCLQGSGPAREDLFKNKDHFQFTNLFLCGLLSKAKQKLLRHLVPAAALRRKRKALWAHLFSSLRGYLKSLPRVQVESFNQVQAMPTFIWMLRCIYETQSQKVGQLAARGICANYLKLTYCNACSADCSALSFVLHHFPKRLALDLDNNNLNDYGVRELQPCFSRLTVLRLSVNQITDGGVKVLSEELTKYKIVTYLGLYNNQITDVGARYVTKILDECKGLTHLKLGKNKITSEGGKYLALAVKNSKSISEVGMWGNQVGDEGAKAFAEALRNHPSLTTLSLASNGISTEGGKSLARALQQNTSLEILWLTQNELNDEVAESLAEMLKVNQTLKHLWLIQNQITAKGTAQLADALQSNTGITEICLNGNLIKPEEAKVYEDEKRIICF
Description: blockers of NOD1 pathway activity – revised, SAR follow-up (AID 2333). It counts as functional.

The source made the active and inactive calls.

As usually defined, the IC50 is the concentration needed to halve the response being measured. For the molecule `CCCOc1ccc(C(=O)Nc2ccc(NC(=O)c3cc4ccccc4o3)cc2)cc1`, the IC50 is > 80 µM (inactive) in experiment [1]; > 79 µM (inactive) in experiment [2]; > 80 µM (inactive) in experiment [3] (Homo sapiens, HEK293).
What is called CC50 is the concentration that lowers cell viability or growth by half. For `O=c1c2ccccc2nc(/C=C/c2cc(Br)ccc2O)n1CCCO`, in experiment [4], the IC50 is > 25 µM (active). Further, the 50% cytotoxic concentration (CC50) in experiment [5] was 22.8 µM (active).
For the molecule `CN(CCNC(=O)CN1CCN(Cc2ccccc2Cl)C1=O)Cc1ccccc1`, in [6], the half-inhibitory concentration (IC50) was 15.9 µM (active).
Regarding `C/C(=N/OCO/N=C(/C)c1ccc(F)cc1)c1ccc(F)cc1`, in experiment [4], the IC50 is > 12.5 µM (active).
On to `CCNC(=O)CCc1nc(-c2ccc(C(C)(C)C)cc2)no1`, for which the IC50 in experiment [1] is 34 µM (inactive); in [2] it was > 79 µM (inactive); in experiment [7], > 80 µM (inactive); in experiment [3] (Homo sapiens, HEK293), 76.1 µM (inactive); in experiment [3] (hek293) it was 79.3 µM (inactive).
Regarding `C/C(=N\N=C(N)N)c1ccc(Cl)c(Cl)c1`, the IC50 in experiment [6] is 13.8 µM (active).
Regarding `COc1cc(C(=S)NC2CCCC2)ccc1O`, the concentration for half-maximal inhibition (IC50) in [8] is 2.58 µM (active); in [9] it was > 100 µM (inactive).
What is called AC50 is the concentration giving half of the maximal activity seen. By EC50 is commonly meant the concentration needed to bring the measured effect to its halfway point. With `Nc1cccc2nc3ccccc3cc12`, the AC50 in [10] was 5.07 µM (active); in [12], 4.75 µM (active); in [20], 54 µM (active). Also, the results for the IC50 in experiment [11] and in experiment [16] were 4.9 µM (active) and 3.72 µM (active), respectively. Moreover, the EC50 in experiment [13] is > 120 µM (not active); in [14], 22.8 µM (active); in experiment [15] it was 0.95 µM (active); in experiment [17], > 59.7 µM (inactive); in experiment [18], 7.26 µM (active); in experiment [19] it was > 6.63 µM (active).
On to `Cc1ccc(-c2nc3ccccc3s2)cc1`, for which the IC50 in experiment [21], in [22] and in experiment [23] was > 20 µM (inactive) throughout.
